# Source: US12324802B2, “Modulators of cystic fibrosis transmembrane conductance regulator” (Vertex Pharmaceuticals Incorporated, priority 2020, dated 2025)
# pEC50: −log10 of the molar value.
# Target: T1, CFTR (F508del/MF-HBE cells) (Homo sapiens, UniProt P13569, DEL508-508)
# T1 construct: human bronchial epithelial (HBE) cells derived from CF subjects heterozygous for F508del and a minimal function CFTR mutation; endogenous in cells; host or cells: primary human bronchial epithelial cells from CF subjects (F508del/MF genotype)
# Test: Ussing chamber assay of CFTR-mediated short-circuit currents (identification of potentiator compounds)
# Assay type: cell-based
# Details: CFTR-mediated ISC in F508del/MF-HBE cells; incubated 18-24 hours at 37° C. with 10 μM (14S)-8-[3-(2-{dispiro[2.0.2.1]heptan-7-yl}ethoxy)-1H-pyrazol-1-yl]-...-2,2,4-trione, 20% human serum
# Method: Ussing Chamber Assay of CFTR-Mediated Short-Circuit Currents
# Ussing chamber experiments were performed using human bronchial epithelial (HBE) cells derived from CF subjects heterozygous for F508del and a minimal function CFTR mutation (F508del/MF-HBE) and cultured as previously described (Neuberger T, Burton B, Clark H, Van Goor F Methods Mol Biol 2011:741:39-54). After four days the apical media was removed, and the cells were grown at an air liquid interface for >14 days prior to use.
# To isolate the CFTR-mediated short-circuit (ISC) current, F508del/MF-HBE grown on Costar® Snapwell™ cell culture inserts were mounted in an Ussing chamber and the transepithelial ISC was measured under voltage-clamp recording conditions (Vhold=0 mV) at 37° C. The basolateral solution contained (in mM) 145 NaCl, 0.83 K2HPO4, 3.3 KH2PO4, 1.2 MgCl2, 1.2 CaCl2), 10 Glucose, 10 HEPES (pH adjusted to 7.4 with NaOH) and the apical solution contained (in mM) 145 NaGluconate, 1.2 MgCl2, 1.2 CaCl2), 10 glucose, 10 HEPES (pH adjusted to 7.4 with NaOH) and 30 μM amiloride to block the epithelial sodium channel. Forskolin (20 μM) was added to the apical surface to activate CFTR, followed by apical addition of a CFTR inhibitor cocktail consisting of BPO, GlyH-101 and CFTR inhibitor 172 (each at 20 μM final assay concentration) to specifically isolate CFTR currents. The CFTR-mediated ISC (μA/cm^2) for each condition was determined from the peak forskolin response to the steady-state current following inhibition.
# Identification of Potentiator Compounds
# The activity of the CFTR potentiator compounds on the CFTR-mediated ISC was determined in Ussing chamber studies as described above. The F508del/MF-HBE cell cultures were incubated with the potentiator compounds at a range of concentrations in combination with 10 μM (14S)-8-[3-(2-{dispiro[2.0.2.1]heptan-7-yl}ethoxy)-1H-pyrazol-1-yl]-12,12-dimethyl-2λ^6-thia-3,9,11,18,23-pentaazatetracyclo [17.3.1.111,14.05,10]tetracosa-1(22),5,7,9,19(23),20-hexaene-2,2,4-trione for 18-24 hours at 37° C. and in the presence of 20% human serum. The concentration of potentiator compounds and (14S)-8-[3-(2-{dispiro[2.0.2.1]heptan-7-yl}ethoxy)-1H-pyrazol-1-yl]-12,12-dimethyl-2λ^6-thia-3,9,11,18,23-pentaazatetracyclo [17.3.1.111,14.05,10]tetracosa-1(22),5,7,9,19(23),20-hexaene-2,2,4-trione used during the 18-24 hours incubations was kept constant throughout the Ussing chamber measurement of the CFTR-mediated ISC to ensure compounds were present throughout the entire experiment. The efficacy and potency of the putative F508del potentiators was compared to that of the known Vertex potentiator, ivacaftor (N-[2,4-bis(1,1-dimethylethyl)-5-hydroxyphenyl]-1,4-dihydro-4-oxoquinoline-3-carboxamide).
# T1 sequence (P13569 with tags, fused parts or gaps DEL508-508): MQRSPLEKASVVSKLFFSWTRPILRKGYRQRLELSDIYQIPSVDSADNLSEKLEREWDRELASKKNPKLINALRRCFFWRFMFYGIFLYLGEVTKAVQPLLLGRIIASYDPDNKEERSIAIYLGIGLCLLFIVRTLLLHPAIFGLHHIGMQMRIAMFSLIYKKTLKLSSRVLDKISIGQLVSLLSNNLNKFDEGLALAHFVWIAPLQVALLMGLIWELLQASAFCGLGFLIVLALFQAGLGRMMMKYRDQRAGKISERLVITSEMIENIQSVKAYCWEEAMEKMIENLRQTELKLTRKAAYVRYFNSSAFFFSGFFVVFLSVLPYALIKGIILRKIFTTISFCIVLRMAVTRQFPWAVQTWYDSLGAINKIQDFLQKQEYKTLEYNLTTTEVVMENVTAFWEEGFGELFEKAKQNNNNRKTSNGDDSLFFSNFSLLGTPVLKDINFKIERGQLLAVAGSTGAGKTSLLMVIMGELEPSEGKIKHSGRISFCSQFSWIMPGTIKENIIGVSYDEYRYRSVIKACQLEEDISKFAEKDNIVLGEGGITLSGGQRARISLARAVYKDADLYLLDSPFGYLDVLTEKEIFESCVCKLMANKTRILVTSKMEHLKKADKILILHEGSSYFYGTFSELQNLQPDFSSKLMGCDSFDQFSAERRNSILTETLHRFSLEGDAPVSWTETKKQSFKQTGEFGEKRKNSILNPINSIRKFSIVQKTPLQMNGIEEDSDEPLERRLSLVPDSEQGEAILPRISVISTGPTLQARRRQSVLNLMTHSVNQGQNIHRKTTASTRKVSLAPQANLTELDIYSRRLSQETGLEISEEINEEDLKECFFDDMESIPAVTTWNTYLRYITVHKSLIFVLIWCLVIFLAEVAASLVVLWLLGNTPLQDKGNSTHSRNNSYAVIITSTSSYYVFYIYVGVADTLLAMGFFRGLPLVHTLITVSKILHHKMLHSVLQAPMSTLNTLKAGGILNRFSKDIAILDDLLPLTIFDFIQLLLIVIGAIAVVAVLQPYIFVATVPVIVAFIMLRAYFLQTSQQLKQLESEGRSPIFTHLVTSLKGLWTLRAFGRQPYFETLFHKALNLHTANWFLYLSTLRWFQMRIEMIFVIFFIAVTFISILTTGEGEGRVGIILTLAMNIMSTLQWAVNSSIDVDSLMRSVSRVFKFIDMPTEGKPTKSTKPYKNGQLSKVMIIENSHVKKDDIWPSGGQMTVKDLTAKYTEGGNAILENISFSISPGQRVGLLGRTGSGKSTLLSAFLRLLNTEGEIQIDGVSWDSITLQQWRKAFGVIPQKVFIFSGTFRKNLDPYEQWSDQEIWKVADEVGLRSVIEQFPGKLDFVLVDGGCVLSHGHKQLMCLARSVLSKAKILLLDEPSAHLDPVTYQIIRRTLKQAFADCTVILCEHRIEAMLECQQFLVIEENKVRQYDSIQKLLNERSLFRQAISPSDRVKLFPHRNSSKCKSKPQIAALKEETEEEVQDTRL
row,pEC50,SMILES
1,< 6.00,"N#Cc1cc(N)c2nc1N1CCC[C@H]1CCCCCC(O)(C(F)(F)F)C1=NN=C2O1 (single isomer, unassigned) [Compound 81]"
2,> 6.30,"Nc1cc(C(F)(F)F)c2nc1-c1nnc(o1)C(O)(C(F)(F)F)c1cccc(n1)CCC[C@@H]1CCCN21 (single isomer, unassigned) [Compound 82]"
3,6.00 to 6.30,"Nc1cc(C(F)(F)F)c2nc1-c1nnc(o1)C(O)(C(F)(F)F)c1cccc(n1)CCC[C@@H]1CCCN21 (single isomer, unassigned) [Compound 83]"
4,> 6.30,"Nc1cc(C(F)(F)F)c2nc1-c1nnc(o1)C(O)(C(F)(F)F)c1cc(ccn1)CCC[C@@H]1CCCN21 (single isomer, unassigned) [Compound 84]"
5,< 6.00,"Nc1cc(C(F)(F)F)c2nc1-c1nnc(o1)C(O)(C(F)(F)F)c1cc(ccn1)CCC[C@@H]1CCCN21 (single isomer, unassigned) [Compound 85]"
6,< 6.00,"Nc1cc(C(F)(F)F)c2nc1-c1nnc(o1)C(O)(C(F)(F)F)c1cc(ccn1)CCC[C@@H]1CCCN21 (single isomer, unassigned) [Compound 86]"
7,> 6.30,"Nc1cc(C(F)(F)F)c2nc1-c1nnc(o1)C(O)(C(F)(F)F)c1cc(ccn1)CCC[C@@H]1CCCN21 (single isomer, unassigned) [Compound 87]"
8,> 6.30,"Nc1cc(C(F)(F)F)c2nc1-c1nnc(o1)C(O)(C1CCOCC1)CCCCC[C@@H]1CCCN21 (single isomer, unassigned) [Compound 88]"
9,< 6.00,"Nc1cc(C(F)(F)F)c2nc1-c1nnc(o1)C(O)(C1CCOCC1)CCCCC[C@@H]1CCCN21 (single isomer, unassigned) [Compound 89]"
10,> 6.30,"Nc1cc(C2CC2)c2nc1-c1nnc(o1)C(O)(C(F)(F)F)CCCCC[C@@H]1CCCN21 (single isomer, unassigned) [Compound 90]"
11,< 6.00,"Nc1cc(C2CC2)c2nc1-c1nnc(o1)C(O)(C(F)(F)F)CCCCC[C@@H]1CCCN21 (single isomer, unassigned) [Compound 91]"
12,< 6.00,"COc1ccc2cc1C(O)(C(F)(F)F)C1=NN=C(O1)c1nc(c(C(F)(F)F)cc1N)N1CCC[C@H]1CCC2 (single isomer, unassigned) [Compound 92]"
13,> 6.30,"COc1ccc2cc1C(O)(C(F)(F)F)C1=NN=C(O1)c1nc(c(C(F)(F)F)cc1N)N1CCC[C@H]1CCC2 (single isomer, unassigned) [Compound 93]"
14,> 6.30,"CCOC(=O)C1CCCCCC(O)(C(F)(F)F)C2=NN=C(O2)c2nc(c(C(F)(F)F)cc2N)N1 (single isomer, unassigned) [Compound 94, ethyl 17-amino-6-hydroxy-6,15-bis(trifluoromethyl)-19-oxa-3,4,13,18-tetrazatricyclo[12.3.1.12,5]nonadeca-1(18),2,4,14,16-pentaene-12-carboxylate]"
15,> 6.30,"CCOC(=O)C1CCCCCC(O)(C(F)(F)F)C2=NN=C(O2)c2nc(c(C(F)(F)F)cc2N)N1 (single isomer, unassigned) [Compound 95, ethyl 17-amino-6-hydroxy-6,15-bis(trifluoromethyl)-19-oxa-3,4,13,18-tetrazatricyclo[12.3.1.12,5]nonadeca-1(18),2,4,14,16-pentaene-12-carboxylate]"
16,< 6.00,"CCOC(=O)C1CCCCCC(O)(C(F)(F)F)C2=NN=C(O2)c2nc(c(C(F)(F)F)cc2N)N1 (single isomer, unassigned) [Compound 97, ethyl 17-amino-6-hydroxy-6,15-bis(trifluoromethyl)-19-oxa-3,4,13,18-tetrazatricyclo[12.3.1.12,5]nonadeca-1(18),2,4,14,16-pentaene-12-carboxylate]"

# Further lines, the compound ahead of its results:
row,SMILES,pEC50
1,"CN1CCCCCCC(C)(O)C2=NN=C(O2)c2nc1c(C(F)(F)F)cc2N (single isomer, unassigned) [Compound 61, 17-amino-6,13-dimethyl-15-(trifluoromethyl)-19-oxa-3,4,13,18-tetrazatricyclo[12.3.1.12,5]nonadeca-1(17),2,4,14(18),15-pentaen-6-ol]",> 6.30
2,"CN1CCCCCCC(C)(O)C2=NN=C(O2)c2nc1c(C(F)(F)F)cc2N (single isomer, unassigned) [Compound 62, 17-amino-6,13-dimethyl-15-(trifluoromethyl)-19-oxa-3,4,13,18-tetrazatricyclo[12.3.1.12,5]nonadeca-1(17),2,4,14(18),15-pentaen-6-ol]",> 6.30
3,"CC(C)c1cc(N)c2nc1N1CCC[C@H]1CCCCCC(O)(C(F)(F)F)C1=NN=C2O1 (single isomer, unassigned) [Compound 63]",> 6.30
4,"CC1CCCCCC(O)(C(F)(F)F)C2=NN=C(O2)c2nc(c(C(F)(F)F)cc2N)N1 (single isomer, unassigned) [Compound 65, 17-amino-12-methyl-6,15-bis(trifluoromethyl)-19-oxa-3,4,13,18-tetrazatricyclo[12.3.1.12,5]nonadeca-1(18),2,4,14,16-pentaen-6-ol]",> 6.30
5,"CC1CCCCCC(O)(C(F)(F)F)C2=NN=C(O2)c2nc(c(C(F)(F)F)cc2N)N1 (single isomer, unassigned) [Compound 66, 17-amino-12-methyl-6,15-bis(trifluoromethyl)-19-oxa-3,4,13,18-tetrazatricyclo[12.3.1.12,5]nonadeca-1(18),2,4,14,16-pentaen-6-ol]",> 6.30
6,"Nc1cc(C(F)(F)F)c2nc1-c1nnc(o1)C(O)(C(F)(F)F)c1cccc(c1)CCC[C@@H]1CCCN21 (single isomer, unassigned) [Compound 70]",> 6.30
7,"Nc1ccc2nc1-c1nnc(o1)C(O)(C(F)(F)F)CCCCC[C@@H]1CCCN21 (single isomer, unassigned) [Compound 71]",> 6.30
8,"Nc1ccc2nc1-c1nnc(o1)C(O)(C(F)(F)F)CCCCC[C@@H]1CCCN21 (single isomer, unassigned) [Compound 72]",< 6.00
9,"Nc1cc(C(F)(F)F)c2nc1-c1nnc(o1)C(O)(C(F)(F)F)CCCCCCN2C1CCC1 (single isomer, unassigned) [Compound 73, 17-amino-13-cyclobutyl-6,15-bis(trifluoromethyl)-19-oxa-3,4,13,18-tetrazatricyclo[12.3.1.12,5]nonadeca-1(18),2,4,14,16-pentaen-6-ol]",> 6.30
10,"CN1CCCCCCC(O)(c2ccccc2)C2=NN=C(O2)c2nc1c(C(F)(F)F)cc2N (single isomer, unassigned) [Compound 76, 17-amino-13-methyl-6-phenyl-15-(trifluoromethyl)-19-oxa-3,4,13,18-tetrazatricyclo[12.3.1.12,5]nonadeca-1(18),2,4,14,16-pentaen-6-ol]",> 6.30
11,"CN1CCCCCCC(O)(c2ccccc2)C2=NN=C(O2)c2nc1c(C(F)(F)F)cc2N (single isomer, unassigned) [Compound 77, 17-amino-13-methyl-6-phenyl-15-(trifluoromethyl)-19-oxa-3,4,13,18-tetrazatricyclo[12.3.1.12,5]nonadeca-1(18),2,4,14,16-pentaen-6-ol]",< 6.00
12,"CN1CCCCCCC(O)(C2CC2)C2=NN=C(O2)c2nc1c(C(F)(F)F)cc2N (single isomer, unassigned) [Compound 78, 17-amino-6-cyclopropyl-13-methyl-15-(trifluoromethyl)-19-oxa-3,4,13,18-tetrazatricyclo[12.3.1.12,5]nonadeca-1(18),2,4,14,16-pentaen-6-ol]",> 6.30
13,"CN1CCCCCCC(O)(C2CC2)C2=NN=C(O2)c2nc1c(C(F)(F)F)cc2N (single isomer, unassigned) [Compound 79, 17-amino-6-cyclopropyl-13-methyl-15-(trifluoromethyl)-19-oxa-3,4,13,18-tetrazatricyclo[12.3.1.12,5]nonadeca-1(18),2,4,14,16-pentaen-6-ol]",< 6.00
14,"N#Cc1cc(N)c2nc1N1CCC[C@H]1CCCCCC(O)(C(F)(F)F)C1=NN=C2O1 (single isomer, unassigned) [Compound 80]",> 6.30
